This is an account of results in ChEMBL document CHEMBL1138983, “Design, synthesis, and evaluation of novel 6-chloro-/fluorochromone derivatives as potential topoisomerase inhibitor anticancer agents” (2006).

For test [1], the system named is Mus musculus. Kind of test: Median survival time in Ehrlich carcinoma bearing Swiss Albino mice 9 days post dose administered ip. It counts as functional.
Test [2] relates to Mus musculus. Kind of test: Increase in life span in Ehrlich carcinoma bearing Swiss Albino mice 9 days post dose administered ip. It counts as functional.
Test [3] relates to Ehrlich. Kind of test: Cytotoxicity against Ehrlich ascites carcinoma cells at 250 ug/ml. It counts as functional, Mus musculus.
Test [4] has as its system Ehrlich. Kind of test: Cytotoxicity against Ehrlich ascites carcinoma cells at 125 ug/ml. The test is classed as functional, Mus musculus.
Test [5] deals with Mus musculus. In words: Effect on weight variation in Ehrlich carcinoma bearing Swiss Albino mice 9 days post dose administered ip. The test is classed as functional.
Test [6] relates to Ehrlich. Kind of test: Cytotoxicity against Ehrlich ascites carcinoma cells at 500 ug/ml. The test is classed as functional, Mus musculus.
The subject of test [7] is Mus musculus. Kind of test: Effect on weight variation in Ehrlich carcinoma bearing Swiss Albino mice 9 days post dose at 3.5 mg/kg, ip. The test is classed as functional, organism-based. On the set-up: dose 3.5 mg/kg.
Test [8] relates to Mus musculus. Kind of test: Median survival time in Ehrlich carcinoma bearing Swiss Albino mice 9 days post dose at 3.5 mg/kg, ip. The test is classed as functional, organism-based. On the set-up: dose 3.5 mg/kg.
Test [9] concerns Mus musculus. In words: Increase in life span in Ehrlich carcinoma bearing Swiss Albino mice 9 days post dose at 3.5 mg/kg, ip. The test is classed as functional, organism-based. On the set-up: dose 3.5 mg/kg.

The molecule `O=Cc1c(N2CCOCC2)oc2cc(N3CCOCC3)c(F)cc2c1=O` came in with an MST in [1] of 11.14 days. For the same molecule, the Activity in test [2] is reported as 16.9%; in [3], 0%; in test [4] it was 0%; in test [5], -15.89%; in test [6], 70%.

Turning to CISPLATIN, the figures for the Activity in [7] and in test [9] were -17.3% and 75.4%, respectively. The same molecule came in with an MST in test [8] of 17.3 days.

As for `CN1CCN(c2oc3ccc(Cl)cc3c(=O)c2C=O)CC1`, the Activity in test [3] is given as 60%; in test [4], 50%; in test [6], 60%.

In test [1], `O=Cc1c(N2CCOCC2)oc2ccc(Cl)cc2c1=O` showed an MST of 12 days. The Activity is 23.1% in test [2]; 100% in test [3]; 60% in [4]; -16.81% in test [5]; 100% in test [6].

`O=Cc1c(N2CCCCC2)oc2ccc(Cl)cc2c1=O`: the Activity in test [3], in test [4] and in [6] was 100% throughout.

With `O=Cc1c(N2CCCC2)oc2ccc(Cl)cc2c1=O`, the Activity in test [3] was determined as 100%; in test [4], 90%; in test [6] it was 100%.

`O=Cc1c(N2CCCCC2)oc2cc(N3CCCCC3)c(F)cc2c1=O`: the MST in test [1] came out at 11.6 days. For the same molecule, the Activity is listed as 17.9% in [2]; 100% in test [3]; 100% in test [4]; -9.5% in test [5]; 100% in test [6].

As for `CN1CCN(c2cc3oc(N4CCN(C)CC4)c(C=O)c(=O)c3cc2F)CC1`, the Activity turned out to be 0% in test [3], 0% in [4] and 20% in test [6].
